1 substance from patent US4401659A, “Muramyl-peptides fixed to peptide-polymers and pharmaceutical compositions containing them” (Agence National de Valorisation de la Recherche (ANVAR), priority 1979, dated 1983) can be followed below.

Data set [1] concerns Klebsiella. Put plainly: Anti-infectious activity with respect to Klebsiella, young mice of 7 days, s.c. treatment and s.c. infection. The class given is in vivo. The note with it: for Number of survivors at D + 8: controls 0 of 53; for Number of survivors at D + 5: controls 1 of 53; for Number of survivors at D + 3: controls 5 of 53. On the procedure: In these trials, the product studied was administered, by the sub-cutaneousroute, 24 hours before the infecting test. For the latter, the infecting dose was 1.2.10^3 Klebsiella; it was also administered by the sub-cutaneous route.

The test system of data set [2] is Klebsiella pneumoniae. In words: Anti-infectious activity with respect to Klebsiella, mice treated i.v. 24 hours before i.m. inoculation. Format: in vivo. The note with it: for Number of survivors at D + 8: controls 4 of 32; for Number of survivors at D + 5: controls 7 of 32; for Number of survivors at D + 3: controls 16 of 32; for Percentage of protection: difference in percentages of survivors versus control group. From the text: The testing procedure is described in the article of CHEDID L. and Col., Proc. Natl. Acad. Sci. USA, 1977, 74, 2089.
It was shown that a dose of about 10^4 Klebsiella pneumoniae, injected by the intramuscular route in mice, results in the progressive death of a considerable part, if not the whole, of the animals in the week following the inoculation. After eight days, the survival of the animals was definitely achieved.
The survival of groups of mice inoculated under the above-indicated conditions and treated by means of the products according to the invention, was recorded.
For these trials, hybrid mice (C57Bl/6 x AKR)F1 raised in the PASTEUR […], from strains derived from the C.N.R.S. breeding station at ORLEANS were used.
The infection by Klebsiella pneumoniae, a strain of the 2-capsular type, biotype d, was done from a culture of 16 hours in a medium for pneumococci (No. 53515, […] PASTEUR). The infecting dose was 1.5.10^4 Klebsiella; it was administered by the intramuscular route.
The administration of the tested product was carried out by the intravenous route in 0.2 ml of apyrogenic physiological solution, the controls receiving the solution alone. It was carried out 24 hours before the inoculation.
The percentage of protection indicated is the difference in the percentages of survivors of the treated group with respect to the control group.

Data set [3] is described as follows: Sensitisation trials: plantar injection in IFA or CFA, dermal injection three weeks later. On the procedure:
These trials were undertaken to study the possible immunogenic properties of the products according to the invention. At the same time, sensitisation tests with respect to various products were carried out.
The tests were carried out on guinea-pigs. The preparations shown in column 1 of the Table of the results were injected by the plantar route. They comprise 100 μg of the product tested incorporated in incomplete FREUND adjuvant (IFA) or in complete FREUND adjuvant (CFA).
Three weeks after this first injection, 50 μg of the products indicated in the upper portion of the Table of results were injected by the dermal route. Possible reactions were observed 48 hours later.

Where [4] appears, read: s.c. at D-1, 1 μg, 39 young mice.
Setting [5] is: s.c. at D-1, 10 μg, 75 young mice.
[6] abbreviates: i.v. at D-1, 1 μg (weight of glycopeptide), 24 mice.
Where [7] appears, read: i.v. at D-1, 10 μg (weight of glycopeptide), 32 mice.

As to “multi-[poly-(N-acetyl-muramyl-D-alanyl-D-isoglutaminyl)-D,L-alanyl]-poly-L-lysine [MDP(D-D)(A--L)]”, in data set [1] (setting [4]), the “Number of survivors at D + 8” value turned out to be 3, the “Number of survivors at D + 5” value came to 6 and the “Number of survivors at D + 3” value came out at 19. In data set [1] (setting [5]), the “Number of survivors at D + 8” value was found to be 18, the “Number of survivors at D + 5” value is reported as 28 and the “Number of survivors at D + 3” value is on record as 50. Moreover, in data set [2] (setting [6]), the “Number of survivors at D + 8” value was 6, the “Number of survivors at D + 5” value is recorded as 7, the “Number of survivors at D + 3” value stood at 15 and the Percentage of protection is on record as 9%. In addition, in data set [2] (setting [7]), the “Number of survivors at D + 8” value worked out at 17, the “Number of survivors at D + 5” value was 19, the “Number of survivors at D + 3” value is given as 26 and the Percentage of protection is recorded as 38%. For the same substance, the “adjuvant to specific immunity” value in data set [3] (administered with ovalbumin) is “is not adjuvant to specific immunity”. Moreover, the “sensitivity reaction with respect to itself and to adjuvant agents like MDP” value in data set [3] (guinea-pigs) is recorded as “does not elicit a sensitivity reaction”.
